How the values were obtained:
COX-1 = target: T1, COX-1 (Homo sapiens, UniProt P23219); assay: In vitro Cox-1 assay (whole blood, TxB2); type: cell-based; details: fresh blood without anticoagulant, clotting 1 h at 37° C., TxB2 immunoassay; read-out: Inhibition of COX-1 activity [measured as pIC50] (converted)
T1 construct: Fresh blood was collected into vacutainers containing no anticoagulants; from tissue; host or cells: fresh whole blood without anticoagulant, allowed to clot
Experimental: Fresh blood was collected into vacutainers containing no anticoagulants. Aliquots of 450 μl were immediately transferred to deep well plates preloaded with 1 μl of either DMSO or a test compound at final concentration of 100 μM-10 nM. In addition 50 μl of Hydroxylamine/PBS were added and the tubes were vortexed and incubated at 37° C. for 1 h to allow the blood to clot. At the end of incubation, serum was obtained by centrifugation (2000 g/5 min) and the supernatant was assayed for TxB2 using a immunoassay kit (RD Systems, Germany) according to the manufactures instruction.
(§1) The data were analysed from 2-3 independent dose response curves with a nonlinear estimation program using GRAPHPAD/Prism and given as pIC50

COX-2 = target: T2, COX-2 (Homo sapiens, UniProt P35354); assay: In vitro Cox-2 assay (LPS-stimulated whole blood, PGE2); type: cell-based; details: heparinized blood, LPS 24 h, PGE2 immunoassay; read-out: Inhibition of COX-2 activity [measured as pIC50] (converted)
T2 construct: Fresh blood was collected in heparinized (8 U/ml, Roche, Switzerland) tubes; from tissue; host or cells: heparinized fresh whole blood stimulated with LPS for 24 h
T2 sequence (P35354 18-604): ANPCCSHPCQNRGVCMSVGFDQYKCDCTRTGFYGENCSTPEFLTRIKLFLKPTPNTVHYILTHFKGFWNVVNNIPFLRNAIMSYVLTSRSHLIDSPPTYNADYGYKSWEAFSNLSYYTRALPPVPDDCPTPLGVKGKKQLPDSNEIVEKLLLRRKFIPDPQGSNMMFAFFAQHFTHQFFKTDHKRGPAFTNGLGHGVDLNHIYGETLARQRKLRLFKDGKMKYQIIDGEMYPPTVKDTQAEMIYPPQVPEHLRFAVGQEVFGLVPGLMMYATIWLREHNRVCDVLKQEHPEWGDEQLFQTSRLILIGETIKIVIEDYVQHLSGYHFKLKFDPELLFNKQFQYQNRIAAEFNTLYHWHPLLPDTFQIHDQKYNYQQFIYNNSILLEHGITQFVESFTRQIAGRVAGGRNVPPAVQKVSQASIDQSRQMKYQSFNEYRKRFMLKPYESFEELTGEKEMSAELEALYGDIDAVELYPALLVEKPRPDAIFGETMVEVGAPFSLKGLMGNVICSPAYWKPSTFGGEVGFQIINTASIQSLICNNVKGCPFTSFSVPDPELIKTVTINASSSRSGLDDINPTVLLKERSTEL
Experimental: Fresh blood was collected in heparinized (8 U/ml, Roche, Switzerland) tubes by venipuncture from both male and female volunteers with consent The subjects had no apparent inflammatory conditions and had not taken any NSAIDs for the last 7 days prior to blood collection. 450 μl aliquots of blood were incubated in deep wells with either 1 μl vehicle (DMSO) or 1 μl of test compound at a final concentration varying from 100 μM-10 nM for 15 min at 37° C. This was followed by incubation of the blood with 50 μl lipopolysaccharide (LPS, Sigma, Germany) 10 μg/ml in 0.1% Hydroxylamine/PBS (Sigma) for 24 h. At the end of incubation the blood was centrifuged at 2000 g for 5 min and […] supernatant was assayed for PGE2 using a immunoassay kit (RD Systems, Germany )
as §1

T1 sequence (P23219 24-599): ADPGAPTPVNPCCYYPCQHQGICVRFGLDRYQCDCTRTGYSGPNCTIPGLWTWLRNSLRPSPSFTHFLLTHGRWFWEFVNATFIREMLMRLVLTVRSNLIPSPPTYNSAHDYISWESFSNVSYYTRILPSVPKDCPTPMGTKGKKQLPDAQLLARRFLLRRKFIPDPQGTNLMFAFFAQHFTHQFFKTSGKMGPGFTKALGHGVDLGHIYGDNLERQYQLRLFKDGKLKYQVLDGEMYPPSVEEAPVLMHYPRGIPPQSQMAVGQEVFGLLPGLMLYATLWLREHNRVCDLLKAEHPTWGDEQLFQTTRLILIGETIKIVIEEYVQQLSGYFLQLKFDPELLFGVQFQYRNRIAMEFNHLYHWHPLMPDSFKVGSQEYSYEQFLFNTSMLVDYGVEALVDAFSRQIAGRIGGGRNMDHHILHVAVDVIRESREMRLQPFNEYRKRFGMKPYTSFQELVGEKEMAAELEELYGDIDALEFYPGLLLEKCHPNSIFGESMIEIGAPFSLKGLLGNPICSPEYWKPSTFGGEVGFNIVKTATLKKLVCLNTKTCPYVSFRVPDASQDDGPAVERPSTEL

IC50 (COX-1): 89.1 nM
IC50 (COX-2): 72.4 nM
Compound: O=C(Cc1cscc1Nc1c(Cl)cccc1Cl)OCCCCO[N+](=O)[O-] [Compound 1, [4-(2,6-Dichlorophenylamino)-thiophen-3-yl]-acetic acid 4-nitrooxybutyl ester]
